# Experimental data published in article PMC11407620, “Repurposing auranofin and meclofenamic acid as energy-metabolism inhibitors and anti-cancer drugs” (PLOS ONE, 2024).
# Experiments:
# HeLa cells [1] = assay: ROS production and total content (DHE); assay type: cell-based, human; conditions: Aur 1.7 μM, 24 h
# Protocol: Fig 3 Radical oxygen species in Aur-treated cancer cells. (A) ROS production and (B) ROS total content in DHE loaded-metastatic cancer cells. The 100% fluorescence corresponds to 1.9 ± 0.26 (n = 3); 1.2 ± 0.09 (n = 3); and 0.64 (n = 2) fluorescence arbitrary units for HeLa, MDA-MB-231 and U373 cells, respectively. The Aur concentration added was 1.7, 0.8 and 0.6 μM for HeLa, MDA-MB-231 and U373 cells, respectively. The contents of ROS shown were determined at the 120 min end-point, after adding 25 μM DHE. *p < 0.05 vs. Control (Non- treated cells).
# [2] = tested on: ovarian cancer A2780 cells; design: method as in PMID 35358852; conditions: cited from earlier work
# GAPDH = tested on: GAPDH; design: method as in PMID 36560881; conditions: OVCAR-8 cells; Aur 2.5 μM/ 8 h; cited from earlier work
# Glioblastoma U373 cells = assay: Cell proliferation, 24 h drug exposure; assay type: cell-based, human
# Protocol: All metastatic (breast MDA-MB231, MDA-MB468, cervix HeLa, prostate PC3, colorectal HCT116, COLO205, glioblastoma U373), low-metastatic (breast MCF-7) cancer and non-cancer (fibroblast 3T3, cardiomyocytes H9C2) cell lines (American Type Culture Collection, Rockville, MD, USA) used in this study were cultured in Petri dishes in 20 mL of Dulbecco’s Modified Eagle’s Medium (DMEM, Sigma, MO, USA) supplemented with 10% fetal bovine serum (Biowest, Mexico) and 10,000 U penicillin/streptomycin (Sigma-Aldrich, MO, USA). […] For growth and maintenance, cells were incubated in 5% CO2/95% air at 37°C and kept until 80–90% of confluence was reached. Then, cells were harvested, washed by centrifugation and resuspended in Krebs-Ringer buffer (KR, 125 mM NaCl, 5 mM KCl, 25 mM Hepes, 1 mM MgCl2, 1 mM KH2PO4, 1.4 mM CaCl2, pH 7.4) for further use. For experimentation, cancer cells (3–5 x 10^6 cells) were cultured in DMEM (with 25 mM glucose) for 24 h in the absence of drugs. Afterwards, old-medium was replaced with fresh DMEM medium (with 25 mM glucose) in the absence (control, non-treated cells) or in the presence of logarithmic concentrations of Aur and MA for 24 h more, under the same culture conditions described above. Viability of cultured cells was determined by the trypan blue exclusion assay. The protein concentration was determined by the Lowry method.
# For cell proliferation in the presence of drugs, cancer cells (20 x 10^3 cells/well) were grown in 96-well plates containing DMEM (Sigma-Aldrich) plus 10% bovine fetal serum for 24 h. […] The effect of these drugs on cell proliferation was determined in 96-well plates by the MTT (3-[4,5-dimethyl-thiazol-2-yl]-2,5-diphenyltetrazolium bromide) assay. The viability of cancer cells was > 95% after treatment with drugs.
# MDA-MB-231 cells = assay: Glycolysis flux (lactate production) in intact cells; assay type: cell-based, human; conditions: +Aur 0.8 μM, 24 h
# Protocol: (§1) For glycolysis flux, cells (3 mg protein/mL) were incubated in KR buffer. Glycolysis was started by adding 5 mM external glucose (Sigma-Aldrich, MO, USA), and cellular samples were withdrawn after 0 and 10 min of incubation at 37°C under smooth orbital shaking. At the indicated times, the cells were rapidly mixed with 3% (w/v) ice-cold perchloric acid and centrifuged. The supernatants were neutralized with 1N KOH/100mM Tris. To rule out lactate production by glutaminolysis, cells were also incubated with 10 mM 2-deoxyglucose (Sigma-Aldrich, MO, USA). Lactate was determined by a standard method with lactate dehydrogenase (Roche, Mannheim, Germany) following the NADH formation at 340 nm.
# HeLa cells [3] = assay: as above; assay type: cell-based, human
# Protocol: as §1
# [4] = tested on: HeLa, MDA-MB-231 and MDA-MB-468 cells; assay: Cell migration, wound healing assay; assay type: cell-based, human; conditions: Aur at IC50 (1.7, 0.8, 2 μM); 24 h
# Protocol: The wound healing assay was performed for cell migration detection. In petri dishes with full DMEM, cancer cells (5 x 10^6 cells/well) were cultured at 37°C under 95% air and 5% CO2 until 80–90% confluence was attained. Afterwards, cell culture was wounded with a 1 mL pipette tip, washed twice with PBS (155 mM NaCl, 1.5 mM KH2PO4, 2.7 mM NaH2PO4, pH 7.2) and subsequently incubated at 37°C with fresh non-serum DMEM. Cellular migration images were taken in an inverted microscope (Zeiss, Thornwood, NY, USA) after 0 and 24 h incubation time. Using a graduated reticule (Zeiss, Thornwood, NY, USA), cellular migration was assessed from the petri dish’s border to its center distance travelled.
# The Aur concentration added was 1.7, 0.8 and 2 μM for HeLa, MDA-MB-231 and MDA-MB-468 cells, respectively. n = 3; *p < 0.05, **p<0.01 vs. Control (Non-treated cells).
# MDA-MB-468 cells = assay: OxPhos flux (oligomycin-sensitive respiration) in intact cells; assay type: cell-based, human; conditions: +MA 50 μM, 24 h
# Protocol: For oxidative phosphorylation (OxPhos) flux, cells (2–5 mg protein/mL) were incubated at 37°C in air saturated KR medium plus 5 mM glucose. To distinguish the oxygen consumption associated to OxPhos, the cells were incubated with 5 μM oligomycin (Sigma-Aldrich, MO, USA), a potent, specific, and permeable inhibitor of the mitochondrial ATP synthase. The net OxPhos rate was determined by using a Clark type electrode, as previously described and by using a high-resolution respirometer (Oroboros Instruments, Innsbruck, Austria) at 37°C. The contribution of OxPhos and glycolysis to the cellular ATP supply was determined, respectively, from the net OxPhos rate (oligomycin-sensitive respiration) multiplied by the ATP/O or P»/O2 ratio that corresponds to 2.5 or 5, and from the rate of lactate production, assuming a stoichiometry of 1 mol of ATP produced per 1 mol of lactate produced.
SMILES,ROS production rate (HeLa cells [1]),total ROS levels after 2 h measurement (HeLa cells [1]),inhibition of cancer cell total oxygen consumption [2],lower GAPDH activity vs. non-treated cells (GAPDH),"IC50 (Glioblastoma U373 cells; Glioblastoma U373, 24 h, read-out: IC50 for proliferation cell rate)",TI ratio (3T3/ cancer cells) (Glioblastoma U373 cells; IC50 3T3 / IC50 U373),TI ratio (H9C2/cancer cells) (Glioblastoma U373 cells; IC50 H9C2 / IC50 U373),Glycolysis flux (MDA-MB-231 cells),"Glycolysis flux (HeLa cells [3]; +Aur 1.7 μM, 24 h)",glycolytic flux inhibition (HeLa cells [3]; Aur alone (Table 2)),inhibition of migration [4],OxPhos flux (MDA-MB-468 cells)
"CC(=O)OC[C@H]1O[C@@H]([S-])[C@H](OC(C)=O)[C@@H](OC(C)=O)[C@@H]1OC(C)=O.CCP(CC)CC.[Au+] [Aur, [1-(thio-κS)-β-D-glucopyranose-2,3,4,6-tetraacetyl] (triethylphosphine)-gold]",did not bring about increments,did not bring about increments,around 25%,40%,0.6 ± 0.1 µM,70,130,3 ± 2 (3) nmol lactate min^-1 mg protein^-1,4 ± 3 (3) nmol lactate min^-1 mg protein^-1,75%,90–95%,–
"Cc1ccc(Cl)c(Nc2ccccc2C(=O)O)c1Cl [MA, Meclofenamic acid]",–,–,–,–,–,–,–,–,–,–,–,4.8 ± 0.8 nmol O2 min^-1 mg protein^-1
